Laboratory results: patent US9056105B2, “Method for treatment of bone diseases and fractures” (INDIANA UNIVERSITY RESEARCH AND TECHNOLOGY CORPORATION, priority 2008, dated 2015)

Columns and labels:
rat femur = assay: Rat femur healing of surgical wounds, micro CT; assay type: in vivo; settings: for increase in cortical thickness vs control: anterior hole; for reduction in wound size vs control: anterior holes; for increase in cortical thickness: posterior hole
Procedure: Rat femur—healing of surgical wounds. A surgical hole with ˜2.0 mm in diameter was generated in the left and right femurs of twenty female SD rats (˜8 weeks, body weight ˜180 g). The holes were drilled through the femur from the anterior surface to the opposite cortex (posterior surface) in the middle of the femur. During the first 5 days, 100 μl of salubrinal solution at dosage of 0.025 mg/kg was injected subcutaneously to the left limb and a PBS solution (vehicle control) in the right limb. The injection site was closed to the anterior surgical hole. Rats were sacrificed on days 10 or 20 after surgery, and the axial and transverse hole sizes as well as cortical thickness (1.5 mm proximal and distal to the center of the hole) were determined with micro CT. […] Regarding the anterior holes, the size of the wounds 10 days after surgery was smaller in the salubrinal treated group by 10.8% (1.905±0.018 mm in control and 1.700±0.021 mm in salubrinal; p<0.001). The size in 20 day samples was further decreased by 18.0% (1.812±0.017 mm in control and 1.486±0.026 mm in salubrinal; p<0.001). […] Note that the reduction in the wound size on day 20 was more significant than those on day 10 in both the anterior and posterior holes (both p<0.001) (FIG. 20B).

femora of C57BL/6 mice = assay: Intramedullary injection into mouse femur, BMD and BMC; assay type: in vivo
Procedure: Responses to Administration of Salubrinal—In Vivo Responses to salubrinal: In order to evaluate the effects of salubrinal in vivo, salubrinal was injected into an intramedullary cavity of the left femora of C57BL/6 mice and alterations in bone mineral density (BMD) and bone mineral content (BMC) were determined. There were 9 salubrinal treated mice as well as 9 placebo mice (injection of PBS). All mice received 4 injections of either salubrinal or PBS in the left femur, while the right femur was used as contralateral control. In four consecutive injections with a 0.5-inch #26-gauge needle and a Hamilton micro-syringe, the laterial side was used on the 1st and 3rd injections and the medial side on the 2nd and 4th injections. An injection volume was 20 μl for salubrinal or PBS, and the salubrinal concentration was 50 μM. […] At the time of harvest (2 wks after the 1st injection), an increase in body weight in Salubrinal group (0.80±0.13 g) was higher than that in Placebo group (0.28±0.15 g; p<0.05). Harvested bone samples were analyzed with PIXImus (version 1.4, GE Medical System Lunar) for determination of BMD and BMC.

MLO-A5 osteocyte cells = assay: mRNA levels by real-time PCR in MLO-A5 osteocyte cells; assay type: cell-based; settings: 100 nM-50 μM, 1-24 h
Procedure: (§1) Responses to Administration of Salubrinal—In vitro responses to salubrinal: In order to evaluate the effects of salubrinal, MC3T3 E1 osteoblast-like cells and MLO-A5 osteocyte cells (Barragan-Adjemian, C., et al., “Mechanism by which MLO-A5 late osteoblasts/early osteocytes mineralize in culture: similarities with mineralization of lamellar bone,” Calcif. Tissue Int. 79:340-353 (2006)) were incubated with salubrinal at 100 nM-50 μM for 1-24 h. The mRNA levels of the selected genes, TF4, ATF3, Osteocalcin (OCN), and CHOP, were determined by real-time PCR. […] In MC3T3 cells, for instance, the Osteocalcin mRNA level, which is regulated by ATF4 and Runx2 (Xiao et al. 2005), was elevated 11.8±0.2 fold at 10 μM salubrinal in 24 h.

mouse tibia = assay: Mouse tibia bone formation, ankle loading plus local salubrinal; assay type: in vivo; settings: 0.025 mg/kg (100 μM) salubrinal plus ankle loading, 5 days
Procedure: Mouse tibia-bone formation: Twenty C57/BL/6 Female Mice (˜8 weeks, body weight˜18 g) were employed to examine the combined effects of ankle loading and local administration of salubrinal to the tibia (Zhang P, et al., Salubrinal stimulates anabolic responses in mouse femora, 55th Ann Meeting ORS (2009)). Local administration was targeted into a bone marrow cavity from the proximal tibia. A total volume of 20 μl PBS was injected to the left hindlimb with or without 0.025 mg/kg (100 μM) salubrinal (Calbiochem) using a micro-syringe with a 0.5-inch #26-gauge needle (Worsham D N, et al., In vivo gene transfer into adult stem cells in unconditioned mice by in situ delivery of a lentiviral vector, Mol. Ther. 14:514-24 (2006); Zhu Y, et al., eIF-2α protects brainstem motoneurons in a murine model of sleep apnea, J. Neurosci. 28:2168-78 (2008)). In examination of the combined effects of mechanical loading and salubrinal administration, ankle loading was given for 5 consecutive days after administration of salubrinal on each day. The mouse was placed in an anesthetic induction chamber to cause sedation and then mask-anesthetized using 1.5% isoflurane. With a custom-made piezoelectric mechanical loader, loads were applied to the left ankle for 5 min/day in the lateral-medial direction. The loading frequency was 5 Hz, and the peak-to-peak force was 0.5 N (FIG. 15). […]

rat tibia = assay: Rat tibia healing of surgical wounds, micro CT; assay type: in vivo; settings: for reduction in wound size vs control: medial cortex
Source text: Rat tibia—healing of surgical wounds. Twenty female SD rats (˜8 weeks, body weight˜180 g) received a surgical hole with ˜2.0 mm in diameter in the left and right tibiae (Zhang P., et al., Knee loading accelerates bone healing in mice, J. Bone Miner. Res. 22:1979-1987 (2007)). The hole was located on the medial surface ˜15 mm distant apart from the proximal end of the tibia (Chiba S., et al., Molecular analysis of defect healing in rat diaphyseal bone, J. Vet. Med. Sci. 63:603-606 (2001)). During the first 5 days, 100 μl of salubrinal solution at dosage of 0.025 mg/kg was injected into the left limb and a PBS solution (vehicle control) in the right limb (Wang J W, et al., Locally applied simvastatin promotes fracture healing in ovariectomized rat, Osteoporosis Int. 18:1641-1650 (2007)). Injection was subcutaneous targeted to the wound site. Rats were sacrificed on days 10 or 20 after surgery, and the axial and transverse length of the holes as well as cortical thickness (1.5 mm proximal and distal to the center of the hole) were determined with micro CT imaging (μCT-20, Scanco Medical AG) (FIG. 16).

rat brain = settings: intra-cerebroventricular or intra-peritoneal administration; cited from earlier work
brainstem motoneurons = settings: hypoxia and reoxygenation events; cited from earlier work
rat β-cells = settings: 5-75 μM, dosage dependent; cited from earlier work
[1] = tested on: ATF4, ATF3, CHOP, Runx2, Osterix, Rank 1, Osteocalcin mRNA; assay: mRNA expression levels by real-time PCR in MC3T3 cells; assay type: cell-based, mouse
Procedure: Responses to Administration of Thapsigargin—Upregulation of transcription factors linked to bone formation as well as PERK: The effects of 10 nM thapsigargin on mRNA expression levels of ISR-linked genes (ATF4, ATF3, and CHOP) as well as genes involved in bone remodeling (Runx2, Osterix, and Rank 1), were examined (FIG. 7). […] Out of 4 transcription factors (ATF4, ATF3, Runx2, and Osterix), the level of ATF4 mRNA was elevated 2-4 fold throughout the treatments. […] The mRNA level of type 1 collagen was elevated 5 h and 10 h for T1h (1 h exposure at 10 nM).
as §1

[2] = tested on: CHOP, pro-caspase 3, cleaved caspase 3; assay: Protein levels of CHOP, pro-caspase 3 and cleaved caspase 3 (induction of apoptosis); assay type: cell-based, mouse; settings: 10 nM
Procedure: (§2) At higher doses of 10 and 100 nM, the levels of eIF2α-p and ATF4 proteins were elevated (FIG. 5A). Thapsigarin is known to induce apoptosis when administered above a threshold concentration.

MC3T3 cells [3] = assay type: cell-based, mouse
[4] = tested on: PERK, PKR, p-38 MAPK, ERK1/2; assay: Phosphorylation of eIF2α kinases and MAP kinases; assay type: cell-based, mouse; settings: 10 nM, 1 h exposure
Procedure: In response to T1h (1 h exposure at 10 nM), the level of phosphorylation of two eIF2α kinases (PERK and PKR), and two MAP kinases (p-38 MAPK and ERK1/2) was examined (FIG. 8).

MC3T3 cells [5] = assay: Microarray analysis (GSEA, IPA) of thapsigargin-induced mild ER stress; assay type: cell-based, mouse; settings: 1 h exposure at 10 nM
Procedure: Responses to Administration of Thapsigargin—Linkage to hypoxia through microarray analysis: In response to thapsigargin-induced mild ER stress (1 h exposure at 10 nM), microarray experiments were conducted. First, Gene Set Enrichment Analysis (GSEA; Broad Institute) was used to identify a group of genes that shared common biological functions (Hamamura, K., et al., “Microarray analysis of thapsigargin-induced stress to the endoplasmic reticulum of mouse osteoblasts,” J. Bone Miner. Metab. 26:231-240 (2008)). For each group of gene sets, GSEA calculates an enrichment score and evaluates statistical significance in the enrichment score. […] The highest normalized enrichment score was given to the gene set, HYPOXIA_UP. All genes present in the array were reordered based on a ranked list-metric value (a mean expression ratio between the thapsigargin-treated and untreated samples), and the best enrichment score of “−0.66” was assigned. Note that if the expression ratio is random among the genes in HYPOXIA_UP, the expected enrichment score is ±0.23. The enrichment score, ranked […] and P (enrichment score) supported the conclusions drawn from the software program output. […]

[6] = tested on: eIF2α-p and ATF4 proteins; assay: Western blot of eIF2α-p and ATF4 proteins in MC3T3 E1 osteoblast-like cells; assay type: cell-based, mouse
Procedure: as §2
MS3T3 osteoblast-like cells were used to evaluate the level of eIF2α-p (phosphorylated form of eukaryotic initiation factor 2—subunit α) in response to salubrinal.

[7] = 10 days after surgery, 0.025 mg/kg

For `O=C(/C=C/c1ccccc1)NC(NC(=S)Nc1cccc2cccnc12)C(Cl)(Cl)Cl` (stereo not drawn) [salubrinal], the “increase in cortical thickness vs control” value (from here on “increase … vs control”) (rat femur; day 10) was 11.0%, the “increase … vs control” value (rat femur; day 20) was 25.7% and the “reduction in wound size vs control” value (rat femur; [7]) was 10.8%. The “reduction in wound size vs control” value (rat femur; 20 days) was 18.0%, the “increase in cortical thickness” value (rat femur; postoperative 10 days) was 13.8% and the “increase in cortical thickness” value (rat femur; postoperative 20 days) was 21.3%. The “BMD of injected femur” value (femora of C57BL/6 mice; 20 μl 50 μM injection, 4 injections, mean±s.e.m.) was 0.0456±0.0011 g/cm^2, the “BMD compared to contralateral control” value (femora of C57BL/6 mice; p=0.02) was “increased” and the “BMC compared to contralateral control” value (femora of C57BL/6 mice; p=0.09) was “showed a trend to elevate”. For the same compound, the “mRNA levels of ATF4, ATF3, Osteocalcin and CHOP” value (MLO-A5 osteocyte cells) was “did not show any significant alterations”, the “tibia BMC” value (mouse tibia) was 0.0154 ± 0.0004 g and the “tibia BMD” value (mouse tibia) was 0.0443±0.0011 g/cm^2. The “increase … vs control” value (rat tibia; day 10) was 11.6%, the “increase … vs control” value (rat tibia; day 20) was 20.3% and the “reduction in wound size vs control” value (rat tibia; [7]) was 12.3%. For the same compound, the “reduction in wound size vs control” value (rat tibia; 20 days) was 19.1%, the “excitotoxic neuronal death in vivo” value (rat brain) was “decreased excitotoxic neuronal death” and the motoneuronal injury (brainstem motoneurons) was “suppressed motoneuronal injury”. The apoptosis (rat β-cells) was “induced apoptosis” and the “mRNA levels of ATF4, ATF3, Osteocalcin and CHOP” value ([1]; MC3T3 cells, 100 nM-50 μM, 1-24 h) was “upregulated”.

With `C/C=C(/C)C(=O)O[C@H]1C(C)=C2[C@H]([C@@H]1OC(=O)CCCCCCC)[C@@](C)(OC(C)=O)C[C@H](OC(=O)CCC)[C@@]1(O)[C@H]2OC(=O)[C@@]1(C)O` [thapsigargin] the “level of active (cleaved) caspase 3” value [2] was “increased after 24 h”, the “level of CHOP protein” value ([2]; higher for 5, 10 and 24 h) was “started to increase after 3 h” and the “numbers of live and dead cells” value (MC3T3 cells [3]; 10 nM, 1 h incubation) was “does not alter”. The “cell number or mortality vs control cells” value (MC3T3 cells [3]; 1 h exposure at 10 nM) was “no significant difference”, the “level of p-ERK1/2” value [4] was “not altered” and the “level of p-PERK” value [4] was “elevated”. The “level of p-PKR” value [4] was “not altered”, the “level of p-p38 MAPK” value [4] was “elevated” and the “core enrichment genes in HYPOXIA_UP vs control” value (MC3T3 cells [5]) was “significantly upregulated”. The “levels of eIF2α-p and ATF4 proteins” value ([6]; 10 and 100 nM) was “elevated”, the “eIF2α-p and ATF4 protein expression” value ([6]; dosages below 0.1 nM) was “no detectable upregulation” and the “increase in Runx2 mRNA” value ([1]; 10 nM) was “started at 3 h and peaked at 5 h”. The “mRNA level of CHOP” value ([1]; 10 nM) was 10-35 fold, the “mRNA level of type 1 collagen” value ([1]; 10 nM, 1 h exposure, 5 h and 10 h) was “elevated” and the “Rank 1 mRNA” value ([1]; 10 nM, 3 h for T2h and 10 h for T3h) was “significantly up”. For the same compound, the “level of Osteocalcin mRNA” value ([1]; 1-100 nM for 1-24 h) was “did not increase”.
